In patent US20260174769A1, “MACROCYCLIC COMPOUNDS AND METHODS OF USE” (AMGEN INC., priority 2022, published 2026) one finds IC50 data, which are given here for 35 compounds.

The target in this experiment is His-tagged KRAS G12D protein (Homo sapiens, UniProt P01116, G12D). Nature of the experiment: KRAS G12D TR-FRET Assay. The format is binding. Here is the method: The His-tagged KRAS G12D protein (Amgen) was diluted to 20 nM in Assay Buffer (20 mM HEPES, pH 7.4, 10 mM MgCl2, 50 mM NaCl, 0.1% BSA, 0.01% Tween-20, 10 μM GDP) and 2 μL was added to the appropriate wells of the 384-well plate. The plate was incubated for 30 minutes at room temperature. Biotinylated KRPep-2d substrate (Amgen) was diluted to 20 nM in Assay Buffer and 2 μL was added to all wells and incubated for 1 hour at room temperature. Detection Reagent (0.4 nM LANCE Eu-W1024 Anti-6×His (Perkin Elmer AD0401), 5 nM streptavidin-d2 (Cisbio 610SADLA)) was prepared in Assay Buffer, then 4 μL was added to the plate and incubated for 1 hour at room temperature.
Chain of His-tagged KRAS G12D protein (P01116 1-188 isoform P01116-2 G12D): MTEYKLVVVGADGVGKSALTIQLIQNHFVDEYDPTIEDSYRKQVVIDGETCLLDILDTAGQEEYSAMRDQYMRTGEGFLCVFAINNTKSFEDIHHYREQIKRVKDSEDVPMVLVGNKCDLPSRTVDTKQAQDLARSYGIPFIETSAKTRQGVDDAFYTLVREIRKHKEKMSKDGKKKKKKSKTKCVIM
On the technique in general: Time-resolved FRET reads energy transfer from a long-lived donor to a nearby acceptor.

Where [1] appears, read: TR-FRET, read-out: KRAS G12D Binding IC50.

The structures appear in SMILES notation. Read-outs that look alike come from different tables or passages of the source.

With `CC12COCCN(C1)c1nc(OC[C@@]34CCCN3C[C@H](F)C4)nc3c(F)c(ncc13)-c1c(c(Cl)cc3[nH]ncc13)CCCc1nc2no1` (mixture of isomers) [Example 379, (1RS)-10-chloro-33-fluoro-24-(((2R,7a.S)-2-fluorotetrahydro-1H-pyrrolo[1,2-α]pyrrol-7a(5H)-yl)methoxy)-1-methyl-4,30-dioxa-3,13,14,19,23,25,27,34-octaazaheptacyclo[25.4.1.1~2,5~.1~18,22~.0~9,17~.0~12,16~.0~21,26~]tetratriaconta-2,5(34),9,11,14,16,18(33),19,21,23,25-undecaene], the IC50 – broadly, the concentration at which inhibition is half-maximal – under setting [1] amounted to 0.009 µM.
Under “TR-FRET binding”, `CN(C)CC1(COc2nc3c4cnc(c(F)c4n2)-c2c(c(Cl)cc4[nH]ncc24)CCCOC(=O)O[C@@]2(C)COCCN3C2)CC1` (single isomer, unassigned) [Example 332] yielded an IC50 of 3.24 µM.
The same measure, in the same setting: to `Cc1cc2[nH]ncc2c2c1CCCCO[C@@H](C)[C@H]1CN(CCO1)c1nc(OC[C@@]34CCCN3C[C@H](F)C4)nc3c(F)c-2ncc13` (single isomer, unassigned) [Example 242] belongs 1.14 µM; to `Fc1c2ncc3c(nc(OC[C@@]45CCCN4C[C@H](F)C5)nc13)N1CCCC[C@@H](C1)c1cnn(n1)CCCc1c(Cl)cc3[nH]ncc3c1-2` (single isomer, unassigned) [Example 295], 2.25 µM.
With `Fc1c2ncc3c(nc(OC[C@@]45CCCN4C[C@H](F)C5)nc13)N1CCC[C@@H](C1)c1cnc(o1)CCCc1c(Cl)cc3[nH]ncc3c1-2` (single isomer, unassigned) [Example 386], the IC50 under setting [1] came to 3.73 µM.
On the same count and under the same terms, to `Fc1c2ncc3c(nc(OC[C@@]45CCCN4C[C@H](F)C5)nc13)N1CCC[C@H](C1)Cn1ncc(n1)[C@@H]1C[C@@H]1c1c(Cl)cc3[nH]ncc3c1-2` (relative stereo) [Example 383, (11R,13S,19R)-rel-9-chloro-32-fluoro-26-(((2.R.7aS)-2-fluorotetrahydro-1H-pyrrolo[1,2-α]pyrrol-7a(5H)-yl)methoxy)-5,6,16,17,23,25,27,31,34-nonaazaoctacyclo[26.3.1.1~14,17~1~19,23~.0~2,10~0~3,7~.0~11,13~.0~24,29~]tetratriaconta-1(32),2.4,7,9,14(34),15,24,26,28,30-undecaene] belongs 0.013 µM.
`CN1CCC[C@H]1COc1nc2c3cnc(c(F)c3n1)-c1c(c(Cl)cc3[nH]ncc13)CCCOC(=O)O[C@]1(CF)COCCN2C1` (single isomer, unassigned) [Example 338] registered an IC50 (TR-FRET binding) of 0.007 µM.
As for `O=C1OCC[C@@H]2CCc3cc4[nH]ncc4c(c32)-c2ncc3c(nc(OC[C@@]45CCCN4C[C@H](F)C5)nc3c2F)N2CCOC[C@H](C2)O1` (single isomer, unassigned) [Example 367], the IC50 (TR-FRET binding) came to 0.004 µM.
On the same count and under the same terms, to `CN1C(=O)COCC[C@H]2CCc3cc4[nH]ncc4c(c32)-c2ncc3c(nc(OC[C@@]45CCCN4C[C@H](F)C5)nc3c2F)N2CCC[C@@H]1C2` (single isomer, unassigned) [Example 278] belongs 19.3 µM; to `Cc1cc2[nH]ncc2c2c1CCCOC(=O)O[C@@]1(C)COCCN(C1)c1nc(OC[C@@H]3CCCN3C)nc3c(F)c-2ncc13` (single isomer, unassigned) [Example 182], 7.57 µM.
With `Fc1c2ncc3c(nc(OC[C@@]45CCCN4C[C@H](F)C5)nc13)N1CCCC[C@@](F)(COCCCCc3c(Cl)cc4[nH]ncc4c3-2)C1` (single isomer, unassigned) [Example 399], the IC50 under setting [1] is 0.004 µM.
For the compound `C[C@@]12COCCN(C1)c1nc(OC[C@@]34CCCN3C[C@H](F)C4)nc3c(F)c(ncc13)-c1c3c(cc4[nH]ncc14)CC[C@@H]3CCOC(=O)O2` (single isomer, unassigned) [Example 366], the IC50 (TR-FRET binding) was found to be 0.938 µM.
Consider `O=C1OCCCc2c(Cl)cc3[nH]ncc3c2-c2ncc3c(nc(OC[C@@]45CCCN4C[C@H](F)C5)nc3c2F)N2CCCC[C@](CF)(C2)O1` (single isomer, unassigned) [Example 340], for which the IC50 (TR-FRET binding) amounted to 0.004 µM.
On the same count and under the same terms, to `C[C@H]1CCOC[C@H]2CN(CCO2)c2nc(OC[C@@]34CCCN3C[C@H](F)C4)nc3c(F)c(ncc23)-c2c(c(Cl)cc3[nH]ncc23)C1` (single isomer, unassigned) [Example 252] belongs 0.028 µM; to `Cc1cc2[nH]ncc2c2c1CCC[C@@H](F)C(=O)N(C)[C@@H]1CCCN(C1)c1nc(OC[C@@]34CCCN3C[C@H](F)C4)nc3c(F)c-2ncc13` (single isomer, unassigned) [Example 52], 0.019 µM.
As for `O[C@@H]1C[C@@H]2COCCCCc3c(Cl)cc4[nH]ncc4c3-c3ncc4c(nc(OC[C@@]56CCCN5C[C@H](F)C6)nc4c3F)N(C1)C2` (single isomer, unassigned) [Example 406], under setting [1], the IC50 was 0.021 µM.
For the compound `Cc1cc2[nH]ncc2c2c1CCCOC(=O)N[C@]1(C)CCCCN(C1)c1nc(OC[C@@]34CCCN3C[C@H](F)C4)nc3c(F)c-2ncc13` (single isomer, unassigned) [Example 292], the IC50 (TR-FRET binding) was 0.004 µM.
Same read-out and setting: to `C[C@@]12COCCN(C1)c1nc(OC[C@@H]3CC[C@H]4COCCN43)nc3c(F)c(ncc13)-c1c(c(Cl)cc3[nH]ncc13)CCCOC(=O)O2` (single isomer, unassigned) [Example 309] belongs 0.01 µM.
As for `Fc1c2ncc3c(nc(OC[C@@]45CCCN4C[C@H](F)C5)nc13)N1CCO[C@@H](C1)c1coc(n1)CCCc1c(Cl)cc3[nH]ncc3c1-2` (single isomer, unassigned) [Example 389], the IC50 under setting [1] was 3.96 µM.
Compound `[2H]C([2H])([2H])[C@]12COCCN(C1)c1nc(OC[C@@]34CCCN3C[C@H](F)C4)nc3c(F)c(ncc13)-c1c(c(Cl)cc3[nH]ncc13)CCCOC(=O)O2` (single isomer, unassigned) [Example 354] registered an IC50 (TR-FRET binding) of 1.59 µM.
Still for that read-out and setting: to `O=C1CCCCc2c(Cl)cc3[nH]ncc3c2-c2ncc3c(nc(OC[C@@]45CCCN4C[C@H](F)C5)nc3c2F)N2CC[C@@H]3CCN1[C@@H]3C2` (single isomer, unassigned) [Example 61] belongs 0.079 µM.
For the compound `Fc1c2ncc3c(nc(OC[C@@]45CCCN4C[C@H](F)C5)nc13)N1CCO[C@@H](COCC[C@H]3C[C@H]3c3c(Cl)cc4[nH]ncc4c3-2)C1` (single isomer, unassigned) [Example 393], the IC50 under setting [1] turned out to be 1.81 µM.
`O=C1CCCc2c(F)ccc3cccc(c23)-c2ncc3c(nc(OC[C@@]45CCCN4C[C@H](F)C5)nc3c2F)N2CC[C@H]3CCN1[C@H]3C2` (single isomer, unassigned) [Example 72] displayed an IC50 (TR-FRET binding) of 0.003 µM.
In turn, `C[C@@]12COCCN(C1)c1nc(OC[C@@]34CCCN3C[C@H](F)C4)nc3c(F)c(ncc13)-c1c3c(cc4[nH]ncc14)CC[C@H]3CCOC(=O)O2` (single isomer, unassigned) [Example 365] registered an IC50 (TR-FRET binding) of 0.003 µM.
The same measure, in the same setting: to `O=C1OCCCc2c(Cl)cc3[nH]ncc3c2-c2ncc3c(nc(OC[C@@]45CCCN4C[C@H](F)C5)nc3c2F)N2CC[C@H]3CCN1[C@H]3C2` (single isomer, unassigned) [Example 177] belongs 0.003 µM.
As to `Fc1c2ncc3c(nc(OC[C@@]45CCCN4C[C@H](F)C5)nc13)N1CCOC[C@H](C1)c1cnn(n1)CCCc1c(Cl)cc3[nH]ncc3c1-2` (single isomer, unassigned) [Example 298], the IC50 (TR-FRET binding) was 0.007 µM.
With `Cc1cc2[nH]ncc2c2c1CCCCO[C@@H](C)[C@@H]1CN(CCO1)c1nc(OC[C@@]34CCCN3C[C@H](F)C4)nc3c(F)c-2ncc13` (single isomer, unassigned) [Example 244], where the note is “TR-FRET binding”, the IC50 was 0.027 µM.
Consider `Cc1cc2[nH]ncc2c2c1CCCOC(=O)O[C@]1(C)COCCN(C1)c1nc(OC[C@@H]3CCCN3C)nc3c(F)c-2ncc13` (single isomer, unassigned) [Example 183], for which, for the setting “TR-FRET binding”, the IC50 worked out at 0.008 µM.
For the setting “TR-FRET binding”, `Cc1cc2[nH]ncc2c2c1CCOC(=O)O[C@H]1C[C@@]3(CCCN(C3)c3nc(OC[C@@H]4CCCN4C)nc4c(F)c-2ncc34)C1` (single isomer, unassigned) [Example 325] yielded an IC50 of 0.099 µM.
Where the note is “TR-FRET binding”, `C[C@]12CCCCN(C1)c1nc(OC[C@@]34CCCN3C[C@H](F)C4)nc3c(F)c(ncc13)-c1c(c(Cl)cc3[nH]ncc13)CCCCC(=O)N2` (single isomer, unassigned) [Example 165] displayed an IC50 of 12.7 µM.
As for `Fc1c2ncc3c(nc(OC[C@@]45CCCN4C[C@H](F)C5)nc13)N1CCCCC(C1)c1noc(n1)CCCc1c(Cl)cc3[nH]ncc3c1-2` (mixture of isomers) [Example 382, (1RS)-10-chloro-33-fluoro-24-(((2R,7a.S)-2-fluorotetrahydro-1H-pyrrolo[1,2-α]pyrrol-7a(5H)-yl)methoxy)-4-oxa-3,13,14,19,23,25,27,34-octaazaheptacyclo[25.4.1.1~2,5~.1~18,22~.0~9,17~0~12,16~.0~21,26~]tetratriaconta-2,5(34),9,11,14,16,18(33),19,21,23,25-undecaene], the IC50 under setting [1] worked out at 0.005 µM.
`C[C@@H](Oc1nc2c3cnc(c(F)c3n1)-c1c(c(Cl)cc3[nH]ncc13)CCCOC(=O)O[C@@H]1COCCN2C1)[C@@H]1CCCN1C` (single isomer, unassigned) [Example 203]: the IC50 (TR-FRET binding) was 0.017 µM.
Same read-out and setting: to `C[C@@H]1CCOC[C@H]2CN(CCO2)c2nc(OC[C@@]34CCCN3C[C@H](F)C4)nc3c(F)c(ncc23)-c2c(c(Cl)cc3[nH]ncc23)C1` (single isomer, unassigned) [Example 253] belongs 0.009 µM.
On to `Fc1c2ncc3c(nc(OC[C@@]45CCCN4C[C@H](F)C5)nc13)N1CCOC[C@H](Cc3ncc(o3)CCc3c(Cl)cc4[nH]ncc4c3-2)C1` (single isomer, unassigned) [Example 375], for which, under setting [1], the IC50 is 0.027 µM.
In turn, `Cc1cc2[nH]ncc2c2c1CCOC(=O)O[C@H]1C[C@]3(CCCN(C3)c3nc(OC[C@@H]4CCCN4C)nc4c(F)c-2ncc34)C1` (single isomer, unassigned) [Example 326] came in with an IC50 (TR-FRET binding) of 0.004 µM.
